Assay results from patent US9458120B2, “Phenoxypropanol derivative and pharmaceutical composition including the same” (KOREA INSTITUTE OF SCIENCE AND TECHNOLOGY, priority 2011, dated 2016).

What was measured:
[1] = biological target: α1G T-type calcium channel (Homo sapiens, UniProt O43497); assay: Assay for T-type calcium channel inhibition activity (FDSS6000 calcium imaging, KCl activation); assay type: cell-based; settings: 75 s pre-treatment then KCl 75 mM, HEK293 cells expressing α1G T-type calcium channel and Kir2.1
Procedure: At 12-24 hours before the assay for T-type calcium channel activity, cells of HEK293 cell line (α1G cell line: KCTC 10519BP, GenBank, Korea Research Institute of Bioscience and Biotechnology) which stably express α1G T-type calcium channel and Kir2.1, were sub-cultured in a poly-L-lysine (0.05 mg/ml) treated 96-well plate with the density of 4×10^4 per a well using a 96-well cell dispenser (Titertek). On the day of assay, the 96-well plate to which the cells were attached were washed three times with a HEPES buffer solution (unit mM: 150 NaCl, 5 KCl, 1 MgCl2, 2 CaCl2, 10 HEPES, 10 glucose, pH 7.4) using a 96-well plate automatic washing device (Bio Tek), and then reacted with a HEPES buffer solution containing 5 μM fluo-3/AM and 0.001% (w/v) Pluronic F-127 at room temperature for 1 hour, to label with fluorescent dye, and then further washed twice with the HEPES buffer solution. Thereafter, at 10 minutes before the measurement using a FDSS6000 device, a washing with a HEPES buffer solution containing 10 mM CaCl2 was conducted once more, and the final volume was adjusted to 81 μl. Besides the above 96-well plate containing the cells, additional two 96-well drug plates were provided, in which the 96-well plates contained KCl (final concentration: 75 mM) for activating T-type calcium channel and a blocker drug, respectively.
Since most of cell-based HTS (High throughput screening) devices are equipped with a liquid application system for drug injection, but have no liquid sucking system, the blocker drug to be tested and KCl were respectively provided at the five-times higher concentration in 10 mM CaCl2 HEPES buffer solution at the amount of 27 μl, diluted five-times at the final cell plate volume of 135 μl, and then used in this test. In this Experimental Example, therefore, FDSS6000 (Hamamatsu Photonics) was used as an alternative to HTS device.
Specific FDSS6000 measurement conditions are as follows: After recording the reference value of 20 seconds, the change of intracellular calcium concentration which induced by pre-treatment of the drug (the prepared […]) for 75 seconds followed by administration of KCl was measured, in which the percentage (%) inhibition effect of the test drug was determined, through estimating the area of ratio value of 340/380 in the control without treatment of the test drug as 100%. As a reference drug, 10 μM of mibefradil was always used.
For accurate calcium-imagination, the light sources of 4 xenon lamps in FDSS6000 were radiated to make the cells exposed selectively to the excitation wavelength (340 nm and 380 nm) by computer-controlled filter wheel. Data was obtained at interval of each 1.23 second. The emitter fluorescence light inflow through a 515 nm long-pass filter was obtained as an average 340/380 ratio value for each well in the 96-wells by a cooled CCD camera and digital fluorescence analyzer in the device. All image data and analysis were obtained by using a FDSS6000-exclusive program provided by Hamamatsu Photonics, as described above.

[2] = biological target: T1, TREK-1 channel (Rattus norvegicus, UniProt Q920B6); assay: Assay for TREK channel inhibition activity (whole cell patch clamp recording, COS7 cell transfected with GFP-rTREK-1); assay type: cell-based; settings: COS7 cells, GFP-rTREK-1, whole-cell patch clamp; for inhibition at 101 µM: COS-7, Table 3 (value ± spread), 101 μM [sic], read-out: block % at 101 μM; for inhibition at 10 µM: COS-7, Table 2, read-out: block % at 10 μM
T1 construct: expressed in transfected cells; host or cells: COS7 (Korean Cell Line Bank), transient transfection with Effectene
T1 sequence (Q920B6 1-426): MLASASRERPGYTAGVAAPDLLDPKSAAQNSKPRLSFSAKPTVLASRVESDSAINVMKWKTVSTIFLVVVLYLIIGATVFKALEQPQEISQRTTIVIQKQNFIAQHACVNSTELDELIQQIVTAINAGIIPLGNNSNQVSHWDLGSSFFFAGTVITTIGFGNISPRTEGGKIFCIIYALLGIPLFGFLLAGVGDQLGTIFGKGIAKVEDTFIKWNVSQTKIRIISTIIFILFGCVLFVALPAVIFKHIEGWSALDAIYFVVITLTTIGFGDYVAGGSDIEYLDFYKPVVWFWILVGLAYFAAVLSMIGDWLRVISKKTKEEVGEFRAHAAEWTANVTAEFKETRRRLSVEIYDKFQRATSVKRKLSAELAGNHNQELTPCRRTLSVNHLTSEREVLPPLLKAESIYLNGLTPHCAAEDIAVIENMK
Procedure: The inhibition activity of the compound of the present invention against TREK-1 channel was measured by measuring the physiological activity by whole cell patch clamp recording.
COS7 cell (obtained from Korean Cell Line Bank (KCLB)) was transfected with GFP-rTREK-1 gene (accession number: AY727922) using an Effectene transfection reagent (Qiagen), and cultured for 24 hours in an incubator at 37° C. As a culture medium, Dulbecco's modified Eagle's medium (DMEM, GIBCO products from Invitrogen) containing 10% by weight of fetal bovine serum (FBS) and 1% by weight of penicillin/streptomycin (5000 unit/ml) was used. The cells thus prepared were adhered on a cover glass, which was placed on a chamber, and then a recording solution (150 mM NaCl, 10 mM HEPES, 10 mM KCl, 2 mM CaCl2, 5.5 mM D-Glucose, all reagents were purchased from Sigma) was applied. A glass microelectrode was filled with an intracellular solution prepared with the composition of 150 mM KCl, 5 mM EGTA, 10 mM HEPES, 0.5 mM CaCl2, 1 mM MgCl2, 4 mM Mg-ATP, and 0.3 mM Na-GTP (all reagents were purchased from Sigma), followed by whole-cell patch clamp recording. The voltage was fixed at −70 mV using a Digidata 1322A data acquisition system (Molecular Devices) and an Axopatch 200A amplifier (Axon Instruments), and the current generated by applying a voltage ramp from −100 mV to +100 mV for 1 second was measured using a Clampex9.2 program. A difference between the current values measured at +100 mV and −100 mV was defined as a current in the above experiment. The currents before and after blocker treatment were measured so as to determine the inhibition activity.
Block %=100−(current after blocker treatment/current before blocker treatment)*100

Chain of α1G T-type calcium channel (O43497 whole entry): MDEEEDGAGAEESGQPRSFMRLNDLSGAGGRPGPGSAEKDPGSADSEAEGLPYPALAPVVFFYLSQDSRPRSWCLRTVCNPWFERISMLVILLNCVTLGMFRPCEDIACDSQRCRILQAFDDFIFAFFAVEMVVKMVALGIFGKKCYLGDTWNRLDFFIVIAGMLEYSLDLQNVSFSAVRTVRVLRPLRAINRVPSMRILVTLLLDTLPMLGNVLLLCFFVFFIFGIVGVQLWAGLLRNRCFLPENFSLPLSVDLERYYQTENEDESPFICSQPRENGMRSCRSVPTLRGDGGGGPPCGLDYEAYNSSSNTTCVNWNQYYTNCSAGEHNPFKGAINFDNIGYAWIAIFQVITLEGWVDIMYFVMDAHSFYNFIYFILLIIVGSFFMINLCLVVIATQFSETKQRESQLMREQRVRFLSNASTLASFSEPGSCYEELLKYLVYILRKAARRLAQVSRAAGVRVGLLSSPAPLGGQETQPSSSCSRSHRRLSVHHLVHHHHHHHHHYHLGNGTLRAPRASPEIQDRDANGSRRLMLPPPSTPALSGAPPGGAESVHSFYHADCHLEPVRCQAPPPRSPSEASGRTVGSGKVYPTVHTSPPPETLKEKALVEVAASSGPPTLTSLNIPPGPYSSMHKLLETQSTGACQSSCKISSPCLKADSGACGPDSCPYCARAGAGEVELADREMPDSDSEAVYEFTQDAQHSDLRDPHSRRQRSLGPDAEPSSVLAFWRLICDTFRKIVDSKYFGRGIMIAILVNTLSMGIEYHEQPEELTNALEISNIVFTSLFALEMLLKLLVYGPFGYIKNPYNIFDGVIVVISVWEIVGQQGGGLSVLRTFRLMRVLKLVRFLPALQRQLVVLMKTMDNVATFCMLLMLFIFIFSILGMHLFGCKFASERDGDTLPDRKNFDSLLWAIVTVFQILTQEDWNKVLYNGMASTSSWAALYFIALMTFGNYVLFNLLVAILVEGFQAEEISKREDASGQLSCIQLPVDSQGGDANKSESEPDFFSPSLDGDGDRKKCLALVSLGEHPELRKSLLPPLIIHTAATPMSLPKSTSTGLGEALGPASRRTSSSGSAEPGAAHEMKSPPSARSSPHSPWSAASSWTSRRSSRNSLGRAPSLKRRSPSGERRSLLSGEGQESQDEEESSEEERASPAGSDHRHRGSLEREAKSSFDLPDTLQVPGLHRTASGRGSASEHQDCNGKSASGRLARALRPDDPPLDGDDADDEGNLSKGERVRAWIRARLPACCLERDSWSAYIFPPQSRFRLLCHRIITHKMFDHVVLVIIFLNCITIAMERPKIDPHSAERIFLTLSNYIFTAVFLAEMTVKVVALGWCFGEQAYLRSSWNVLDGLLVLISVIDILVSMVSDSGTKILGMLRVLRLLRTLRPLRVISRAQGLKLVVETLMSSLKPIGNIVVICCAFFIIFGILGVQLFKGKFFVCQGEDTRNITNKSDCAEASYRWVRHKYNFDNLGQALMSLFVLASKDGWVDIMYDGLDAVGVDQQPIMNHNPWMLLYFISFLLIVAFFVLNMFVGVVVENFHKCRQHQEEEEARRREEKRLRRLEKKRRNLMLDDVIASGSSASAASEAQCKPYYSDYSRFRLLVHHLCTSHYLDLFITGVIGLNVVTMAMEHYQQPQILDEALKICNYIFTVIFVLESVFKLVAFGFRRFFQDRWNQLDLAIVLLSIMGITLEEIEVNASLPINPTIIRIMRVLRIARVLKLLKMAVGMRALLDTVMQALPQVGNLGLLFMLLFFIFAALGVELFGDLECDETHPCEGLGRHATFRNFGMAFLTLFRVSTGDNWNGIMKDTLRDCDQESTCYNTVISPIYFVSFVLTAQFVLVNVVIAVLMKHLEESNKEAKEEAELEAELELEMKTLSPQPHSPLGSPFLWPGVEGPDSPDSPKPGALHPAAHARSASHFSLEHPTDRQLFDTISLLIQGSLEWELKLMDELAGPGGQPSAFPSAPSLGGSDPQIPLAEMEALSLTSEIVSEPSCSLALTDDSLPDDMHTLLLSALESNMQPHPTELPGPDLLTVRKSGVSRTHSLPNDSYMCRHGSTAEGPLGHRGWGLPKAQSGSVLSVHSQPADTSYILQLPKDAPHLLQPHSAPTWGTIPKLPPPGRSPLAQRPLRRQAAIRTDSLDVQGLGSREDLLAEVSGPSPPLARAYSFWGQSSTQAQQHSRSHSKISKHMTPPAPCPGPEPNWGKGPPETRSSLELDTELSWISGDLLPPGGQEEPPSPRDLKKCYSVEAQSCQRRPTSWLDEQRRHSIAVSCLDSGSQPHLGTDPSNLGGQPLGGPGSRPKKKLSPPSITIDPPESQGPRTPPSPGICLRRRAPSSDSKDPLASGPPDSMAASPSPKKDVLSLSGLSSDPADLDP

Compound	inhibition [1]	inhibition at 101 µM [2]	inhibition at 10 µM [2]
CC(C)c1cc(CNC(=O)CN2CCN(C[C@@H](O)COc3ccc(C(F)(F)F)cc3)CC2)nn1-c1ccccc1 [KKRE10211, (R)-2-(4-(2-hydroxy-3-(4-(trifluoromethyl)phenoxy)propyl)piperazin-1-yl)-N-((5-isopropyl-1-phenyl-1H-pyrazol-3-yl)methyl)acetamide]	79%	55.3 ± 6.53%	
Cc1ccc(CNC(=O)CN2CCN(C[C@@H](O)COc3ccccc3)CC2)cc1 [KKRE10204, (R)-2-(4-(2-hydroxy-3-phenoxypropyl)piperazin-1-yl)-N-(4-methylbenzyl)acetamide]	12.3%	16.3 ± 12.9%	57.5%
Cc1ccc(F)cc1-n1nc(CNC(=O)CN2CCN(C[C@H](O)COc3ccc(C(F)(F)F)cc3)CC2)cc1CC(C)C [KKRE10221, (S)-N-((1-(5-fluoro-2-methylphenyl)-5-isobutyl-1H-pyrazol-3-yl)methyl)-2-(4-(2-hydroxy-3-(4-(trifluoromethyl)phenoxy)propyl)piperazin-1-yl)acetamide]	68.9%	83.1 ± 4.99%	
Cc1ccccc1-n1nc(CNC(=O)CN2CCN(C[C@H](O)COc3ccc(C(F)(F)F)cc3)CC2)cc1CC(C)C [KKRE10222, (S)-2-(4-(2-Hydroxy-3-(4-(trifluoromethyl)phenoxy)propyl)piperazin-1-yl)-N-((5-isobutyl-1-o-tolyl-1H-pyrazol-3-yl)methyl)acetamide]	79.2%	51.2 ± 12.5%	
Cc1ccc(OC[C@H](O)CN2CCN(CC(=O)NCc3ccc(C(F)(F)F)cc3)CC2)cc1 [KKRE10200, (R)-2-(4-(2-hydroxy-3-(p-tolyloxy)propyl)piperazin-1-yl)-N-(4-(trifluoromethyl)benzyl)acetamide]	43.7%	30.9 ± 3.86%	30.9%
Cc1ccc(F)cc1-n1nc(CNC(=O)CN2CCN(C[C@@H](O)COc3ccc(C(F)(F)F)cc3)CC2)cc1CC(C)C [KKRE10216, (R)-N-((1-(5-fluoro-2-methylphenyl)-5-isobutyl-1H-pyrazol-3-yl)methyl)-2-(4-(2-hydoxy-3-(4-(trifluoromethyl)phenoxy)propyl)piperazin-1-yl)acetamide]	77.4%	71.4 ± 10.8%	
O=C(CN1CCN(C[C@H](O)COc2ccc(C(F)(F)F)cc2)CC1)NCc1ccc(C(F)(F)F)cc1 [KKRE10173, (S)-2-(4-(2-hydroxy-3-(4-(trifluoromethyl)phenoxy)propyl)piperazin-1-yl)-N-(4-(trifluoromethyl)benzyl)acetamide]	53.6%	63.2 ± 7.6%	63.2%
CC(C)Cc1cc(CNC(=O)CN2CCN(C[C@H](O)COc3ccc(F)cc3)CC2)nn1-c1cc(Cl)cc(Cl)c1 [KKRE10230, (S)-N-((1-(3,5-Dichlorophenyl)-5-isobutyl-1H-pyrazol-3-yl)methyl)-2-(4-(3-(4-fluorophenoxy)-2-hydroxypropyl)piperazin-1-yl)acetamide]	60%	78.1 ± 2.95%	

Results, then the compound that gave them:

inhibition [1]	inhibition at 101 µM [2]	inhibition at 10 µM [2]	Compound
78.8%	18.8 ± 7.78%		CC(C)Cc1cc(CNC(=O)CN2CCN(C[C@@H](O)COc3ccc(F)cc3)CC2)nn1-c1ccc(F)cc1 [KKRE10226, (R)-2-(4-(3-(4-Fluorophenoxy)-2-hydroxypropyl)piperazin-1-yl)-N-((1-(4-fluorophenyl)-5-isobutyl-1H-pyrazol-3-yl)methyl)acetamide]
33.7%	24 ± 10.6%		O[C@@H](COc1ccc(F)cc1)CN1CCN(Cc2nccn2Cc2ccccc2)CC1 [KKRE10155, (R)-1-(4-((1-benzyl-1H-imidazol-2-yl)methyl)piperazin-1-yl)-3-(4-fluorophenoxy)propan-2-ol]
43.9%	33.5 ± 5.67%		O=C(CN1CCN(C[C@@H](O)COc2ccc(C(F)(F)F)cc2)CC1)NC1CCCCC1 [KKRE10176, (R)-N-cyclohexyl-2-(4-(2-hydroxy-3-(4-(trifluoromethyl)phenoxy)propyl)piperazin-1-yl)acetamide]
12.5%	46.6 ± 6.25%		O[C@@H](COc1ccc(C(F)(F)F)cc1)CN1CCC(N2CCOCC2)CC1 [KKRE10182, (R)-1-(4-morpholinopiperidin-1-yl)-3-(4-(trifluoromethyl)phenoxy)propan-2-ol]
81.1%	13.1 ± 6.19%		Cc1ccccc1-n1nc(CNC(=O)CN2CCN(C[C@@H](O)COc3ccc(F)cc3)CC2)cc1CC(C)C [KKRE10225, (R)-2-(4-(3-(4-Fluorophenoxy)-2-hydroxypropyl)piperazin-1-yl)-N-((5-isobutyl-1-o-tolyl-1H-pyrazol-3-yl)methyl)acetamide]
33.9%	11 ± 2.58%		Cc1ccc(CNC(=O)CN2CCN(C[C@H](O)COc3ccc(C)cc3)CC2)cc1 [KKRE10199, (S)-2-(4-(2-hydroxy-3-(p-tolyloxy)propyl)piperazin-1-yl)-N-(4-methylbenzyl)acetamide]
9.54%	37.4 ± 6.98%		O[C@@H](COc1ccc(C(F)(F)F)cc1)CN1CCC(N2CCCC2)CC1 [KKRE10184, (R)-1-(4-(pyrrolidin-1-yl)piperidin-1-yl)-3-(4-(trifluoromethyl)phenoxy)propan-2-ol]
17.3%	23.3 ± 10%		O[C@H](COc1ccc(F)cc1)CN1CCC(F)(F)CC1 [KKRE10180, (S)-1-(4,4-difluoropiperidin-1-yl)-3-(4-fluorophenoxy)propan-2-ol]
14.8%	60.8 ± 7.47%		O[C@@H](COc1ccc(C(F)(F)F)cc1)CN1CCC(F)(F)CC1 [KKRE10185, (R)-1-(4,4-difluoropiperidin-1-yl)-3-(4-(trifluoromethyl)phenoxy)propan-2-ol]
6.37%	13.4 ± 5.78%		O[C@H](COc1ccc(F)cc1)CN1CCC(N2CCCCC2)CC1 [KKRE10159, (S)-1-(1,4′-bipiperidin-1′-yl)-3-(4-fluorophenoxy)propan-2-ol]
